What was measured:
Assay in all cases: relative viability (nuclei count vs DMSO), 5 days (fraction); higher = more cells survive
Apatinib + Trametinib = compound: N#CC1(c2ccc(NC(=O)c3cccnc3NCc3ccncc3)cc2)CCCC1 [Apatinib] + CC(=O)Nc1cccc(-n2c(=O)n(C3CC3)c(=O)c3c(Nc4ccc(I)cc4F)n(C)c(=O)c(C)c32)c1 [Trametinib] (partner 0.02 µM)
Procedure, shortened: (§1)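 Lung cancer cell lines in 1536-well plates got either a single drug or a fixed anchor-drug dose together with five library-drug doses (not always all listed) in √10 steps, by pin tool, on the day after seeding. Nuclei were counted after 5 days, and relative viability is the treated-to-vehicle ratio of nuclei counts. Values are medians of duplicate plates.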

Metformin + Dasatinib = compound: CN(C)C(=N)NC(=N)N [Metformin] + Cc1nc(Nc2ncc(C(=O)Nc3c(C)cccc3Cl)s2)cc(N2CCN(CCO)CC2)n1 [Dasatinib] (partner 0.075 µM)
Procedure, shortened: as §1

Apatinib + Foretinib = compound: N#CC1(c2ccc(NC(=O)c3cccnc3NCc3ccncc3)cc2)CCCC1 [Apatinib] + COc1cc2c(Oc3ccc(NC(=O)C4(C(=O)Nc5ccc(F)cc5)CC4)cc3F)ccnc2cc1OCCCN1CCOCC1 [Foretinib] (partner 0.25 µM)
Procedure, shortened: as §1

Metformin + Bortezomib = compound: CN(C)C(=N)NC(=N)N [Metformin] + CC(C)C[C@H](NC(=O)[C@H](Cc1ccccc1)NC(=O)c1cnccn1)B(O)O [Bortezomib] (partner 0.002 µM)
Procedure, shortened: as §1

Cell Line	relative viability (Apatinib + Trametinib; first compound 0.08 µM)	relative viability (Apatinib + Trametinib; first compound 0.253 µM)	relative viability (Apatinib + Trametinib; first compound 0.8 µM)	relative viability (Apatinib + Trametinib; first compound 2.53 µM)	relative viability (Apatinib + Trametinib; first compound 8 µM)	relative viability (Metformin + Dasatinib; first compound 10 µM)	relative viability (Metformin + Dasatinib; first compound 31.62 µM)	relative viability (Metformin + Dasatinib; first compound 100 µM)	relative viability (Metformin + Dasatinib; first compound 316.23 µM)	relative viability (Metformin + Dasatinib; first compound 1000 µM)	relative viability (Apatinib + Foretinib; first compound 0.08 µM)	relative viability (Apatinib + Foretinib; first compound 0.253 µM)	relative viability (Apatinib + Foretinib; first compound 0.8 µM)	relative viability (Apatinib + Foretinib; first compound 2.53 µM)	relative viability (Apatinib + Foretinib; first compound 8 µM)	relative viability (Metformin + Bortezomib; first compound 10 µM)	relative viability (Metformin + Bortezomib; first compound 31.62 µM)	relative viability (Metformin + Bortezomib; first compound 100 µM)	relative viability (Metformin + Bortezomib; first compound 316.23 µM)	relative viability (Metformin + Bortezomib; first compound 1000 µM)
NCI-H3122	0.251	0.234	0.247	0.181	0.176	0.509	0.879	0.897	0.666	0.896	0.995	0.891	0.947	1.06	0.918	0.824	0.97	0.921	0.863	0.886
LOU-NH91	0.826	0.745	0.716	0.717	0.729	0.576	0.491	0.498	0.538	0.499	0.979	0.891	0.836	0.891	0.829	0.515	0.504	0.511	0.56	0.474
NCI-H2087	0.188	0.169	0.205	0.195	0.191		0.933	0.891	0.676	0.693	1.22	1.13	0.91	1.02	0.899	0.564	0.791	0.691	0.786	0.744
NCI-H2347	0.294	0.228	0.249	0.291	0.268	0.336	0.369		0.307	0.354	0.657	0.912	0.856		0.766	1.09	1.1	1.23	1.09	0.641
COR-L 105	0.476	0.418	0.371	0.436	0.431	0.452	0.542	0.44	0.33	0.348	1.36	1.11	1.23	0.768	0.849	1.07	1.05	1.04	0.874	1.17
NCI-H1437	0.526	0.532	0.433	0.314	0.348	0.602	0.48	0.359	0.41	0.415	1.28	1.26	1.24	1.03	1.02	0.629	0.641	0.459	0.527	0.574
SK-LU-1	0.498	0.541	0.545	0.495	0.446	0.171	0.192	0.174	0.17	0.177	1.01	0.857	0.859	0.719	0.732	1.45	1.2	1.1	1.06	1.27
NCI-H1755	0.826	0.746	0.725	0.825	0.652	0.422	0.332	0.433	0.36	0.417	0.984	0.954	0.912	0.91	0.806	0.861	0.913	0.843	0.783	0.896

From the supplement of paper PMC10307832
